# ChEMBL document CHEMBL1201862, “PubChem BioAssay data set” (2004)
#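 Method: 48-hour compound exposure of cells in 96-well plates, five concentrations, linear interpolation of endpoints. GI50: concentration for 50% inhibition of growth.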 Active and inactive are the calls of the source. Rule as the data show it: active = GI50 up to about 1.1 µM and inactive = higher.
# Tests used:
# Experiment in all cases: DTP human tumour cell line panel, 48 h
# [1] = test system: A549
# [2] = test system: CAKI-1
# [3] = test system: COLO 205
# [4] = test system: DLD-1
# [5] = test system: DMS-114
# [6] = test system: DMS-273
# [7] = test system: HCC 2998
# [8] = test system: HCT-116
# [9] = test system: HCT-15
# [10] = test system: HL-60
# [11] = test system: HOP-18
# [12] = test system: HOP-62
# [13] = test system: HOP-92
# [14] = test system: HT-29
# [15] = test system: IGROV-1
# [16] = test system: KM-20L2
# [17] = test system: KM12
# [18] = test system: LOX IMVI
# [19] = test system: M19-MEL
# [20] = test system: MCF7
# [21] = test system: NCI-H226
# [22] = test system: NCI-H460
# [23] = test system: NCI/ADR-RES
# [24] = test system: OVCAR-3
# [25] = test system: OVCAR-4
# [26] = test system: OVCAR-8
# [27] = test system: RPMI-8226
# [28] = test system: SF-268
# [29] = test system: SF-295
# [30] = test system: SF-539
# [31] = test system: SK-MEL-2
# [32] = test system: SK-MEL-5
# [33] = test system: SK-OV-3
# [34] = test system: SN12C
# [35] = test system: SNB-19
# [36] = test system: SNB-75
# [37] = test system: SNB-78
# [38] = test system: SW-620
# [39] = test system: UACC-62
# [40] = test system: UO-31
# [41] = test system: 786-0
# [42] = test system: A498
# [43] = test system: ACHN
# [44] = test system: BT-549
# [45] = test system: CCRF-CEM
# [46] = test system: DU-145
# [47] = test system: EKVX
# [48] = test system: Hs-578T
# [49] = test system: K562
# [50] = test system: M14
# [51] = test system: MDA-MB-231
# [52] = test system: MDA-MB-435
# [53] = test system: MDA-N
# [54] = test system: MOLT-4
# [55] = test system: Malme-3M
# [56] = test system: NCI-H23
# [57] = test system: NCI-H522
# [58] = test system: OVCAR-5
# [59] = test system: PC-3
# [60] = test system: RXF 393
# [61] = test system: SK-MEL-28
# [62] = test system: SR
# [63] = test system: T47D
# [64] = test system: TK-10
# [65] = test system: U-251
# [66] = test system: UACC-257
# [67] = test system: XF498
smiles,measurement,setting,value
Nc1ccn(C2C=C(CO)C(O)C2O)c(=O)c1 (stereo unspecified),GI50,[1],> 625 µM (inactive)
same,GI50,[2],> 625 µM (inactive)
same,GI50,[3],> 625 µM (inactive)
same,GI50,[4],> 62.5 µM (inactive)
same,GI50,[5],> 625 µM (inactive)
same,GI50,[6],> 625 µM (inactive)
same,GI50,[7],> 625 µM (inactive)
same,GI50,[8],> 625 µM (inactive)
same,GI50,[9],> 625 µM
same,GI50,[10],> 625 µM (inactive)
same,GI50,[11],> 625 µM (inactive)
same,GI50,[12],> 625 µM (inactive)
same,GI50,[13],> 625 µM (inactive)
same,GI50,[14],> 625 µM (inactive)
same,GI50,[15],> 625 µM (inactive)
same,GI50,[16],> 625 µM (inactive)
same,GI50,[17],> 625 µM (inactive)
same,GI50,[18],> 625 µM (inactive)
same,GI50,[19],> 625 µM (inactive)
same,GI50,[20],> 625 µM (inactive)
same,GI50,[21],> 625 µM (inactive)
same,GI50,[22],> 625 µM (inactive)
same,GI50,[23],> 625 µM (inactive)
same,GI50,[24],> 625 µM (inactive)
same,GI50,[25],> 625 µM (inactive)
same,GI50,[26],> 625 µM (inactive)
same,GI50,[27],> 625 µM (inactive)
same,GI50,[28],> 625 µM (inactive)
same,GI50,[29],> 625 µM (inactive)
same,GI50,[30],> 625 µM (inactive)
same,GI50,[31],> 625 µM (inactive)
same,GI50,[32],> 625 µM (inactive)
same,GI50,[33],> 625 µM (inactive)
same,GI50,[34],> 625 µM (inactive)
same,GI50,[35],> 625 µM (inactive)
same,GI50,[36],> 625 µM (inactive)
same,GI50,[37],> 625 µM (inactive)
same,GI50,[38],> 625 µM (inactive)
same,GI50,[39],> 625 µM (inactive)
same,GI50,[40],> 625 µM (inactive)
O/N=N/c1cnccn1,GI50,[41],> 1250 µM (inactive)
same,GI50,[42],> 1250 µM (inactive)
same,GI50,[1],> 1250 µM (inactive)
same,GI50,[43],480 µM (inactive)
same,GI50,[44],> 979 µM (inactive)
same,GI50,[2],975 µM (inactive)
same,GI50,[45],491 µM (inactive)
same,GI50,[3],> 1220 µM (inactive)
same,GI50,[4],> 1250 µM (inactive)
same,GI50,[5],929 µM (inactive)
same,GI50,[6],> 1250 µM (inactive)
same,GI50,[46],1090 µM (inactive)
same,GI50,[47],> 1250 µM (inactive)
same,GI50,[7],> 1250 µM (inactive)
same,GI50,[8],> 1230 µM (inactive)
same,GI50,[9],> 1080 µM
same,GI50,[10],322 µM (inactive)
same,GI50,[11],> 1250 µM (inactive)
same,GI50,[12],218 µM (inactive)
same,GI50,[13],> 1080 µM (inactive)
same,GI50,[14],> 1250 µM (inactive)
same,GI50,[48],> 1210 µM (inactive)
same,GI50,[15],> 1150 µM (inactive)
same,GI50,[49],> 1190 µM (inactive)
same,GI50,[16],> 1250 µM (inactive)
same,GI50,[17],> 1250 µM (inactive)
same,GI50,[18],1190 µM (inactive)
same,GI50,[50],> 1250 µM (inactive)
same,GI50,[19],> 1250 µM (inactive)
same,GI50,[20],531 µM (inactive)
same,GI50,[51],> 1250 µM (inactive)
same,GI50,[52],> 1250 µM (inactive)
same,GI50,[53],> 1250 µM (inactive)
same,GI50,[54],196 µM (inactive)
same,GI50,[55],> 1250 µM (inactive)
same,GI50,[21],1250 µM (inactive)
same,GI50,[56],859 µM (inactive)
same,GI50,[22],724 µM (inactive)
same,GI50,[57],1030 µM (inactive)
same,GI50,[23],> 1250 µM (inactive)
same,GI50,[24],> 1250 µM (inactive)
same,GI50,[25],> 438 µM (inactive)
same,GI50,[58],> 1250 µM (inactive)
same,GI50,[26],1200 µM (inactive)
same,GI50,[59],> 1250 µM (inactive)
same,GI50,[27],> 1250 µM (inactive)
same,GI50,[60],> 1250 µM (inactive)
same,GI50,[28],> 1250 µM (inactive)
same,GI50,[29],> 1250 µM (inactive)
same,GI50,[30],> 1190 µM (inactive)
same,GI50,[61],> 1250 µM (inactive)
same,GI50,[31],> 1200 µM (inactive)
same,GI50,[32],> 1250 µM (inactive)
same,GI50,[33],> 269 µM (inactive)
same,GI50,[34],> 1250 µM (inactive)
same,GI50,[35],> 1250 µM (inactive)
same,GI50,[36],> 1110 µM (inactive)
same,GI50,[37],> 918 µM (inactive)
same,GI50,[62],> 180 µM (inactive)
same,GI50,[38],> 1250 µM (inactive)
same,GI50,[63],933 µM (inactive)
same,GI50,[64],> 1250 µM (inactive)
same,GI50,[65],1080 µM (inactive)
same,GI50,[66],> 1250 µM (inactive)
same,GI50,[39],> 959 µM (inactive)
same,GI50,[40],> 1250 µM (inactive)
CCc1ccc(NCc2cc(OC)c(OC)c(OC)c2)cc1,GI50,[43],3.51 µM (inactive)
same,GI50,[44],< 0.01 µM (active)
same,GI50,[45],0.158 µM (active)
same,GI50,[4],0.592 µM (active)
same,GI50,[5],0.586 µM (active)
same,GI50,[46],0.399 µM (active)
same,GI50,[47],4.95 µM (inactive)
same,GI50,[8],0.122 µM (active)
same,GI50,[9],0.0847 µM
same,GI50,[10],0.0603 µM (active)
same,GI50,[12],0.366 µM (active)
same,GI50,[13],1.09 µM (active)
same,GI50,[14],0.105 µM (active)
same,GI50,[49],0.0728 µM (active)
same,GI50,[16],0.388 µM (active)
same,GI50,[17],0.0537 µM (active)
same,GI50,[19],0.579 µM (active)
same,GI50,[54],0.159 µM (active)
same,GI50,[55],0.256 µM (active)
same,GI50,[21],4.65 µM (inactive)
same,GI50,[56],0.532 µM (active)
same,GI50,[57],0.109 µM (active)
same,GI50,[23],< 0.0416 µM (active)
same,GI50,[24],0.123 µM (active)
same,GI50,[25],26.7 µM (inactive)
same,GI50,[58],4.9 µM (inactive)
same,GI50,[59],0.186 µM (active)
same,GI50,[27],0.303 µM (active)
same,GI50,[60],0.224 µM (active)
same,GI50,[29],0.109 µM (active)
same,GI50,[35],0.902 µM (active)
same,GI50,[66],17.2 µM (inactive)
same,GI50,[67],1.69 µM (inactive)
CCCCCC(=O)c1ccc2[nH]c3c(C)cc([N+](=O)[O-])c(C)c3c2c1,GI50,[41],36.1 µM (inactive)
same,GI50,[1],49.4 µM (inactive)
same,GI50,[43],> 100 µM (inactive)
same,GI50,[2],> 100 µM (inactive)
same,GI50,[45],91.2 µM (inactive)
same,GI50,[3],59.6 µM (inactive)
same,GI50,[5],> 100 µM (inactive)
same,GI50,[6],27.9 µM (inactive)
same,GI50,[47],> 100 µM (inactive)
same,GI50,[7],> 100 µM (inactive)
same,GI50,[8],90.8 µM (inactive)
same,GI50,[9],> 100 µM
same,GI50,[10],98.2 µM (inactive)
same,GI50,[12],> 100 µM (inactive)
same,GI50,[14],75 µM (inactive)
same,GI50,[49],25.4 µM (inactive)
same,GI50,[17],> 100 µM (inactive)
same,GI50,[18],> 100 µM (inactive)
same,GI50,[50],70 µM (inactive)
same,GI50,[19],> 100 µM (inactive)
same,GI50,[54],> 100 µM (inactive)
same,GI50,[55],> 100 µM (inactive)
same,GI50,[21],> 100 µM (inactive)
same,GI50,[56],95.3 µM (inactive)
same,GI50,[22],82 µM (inactive)
same,GI50,[57],> 100 µM (inactive)
same,GI50,[24],67.6 µM (inactive)
same,GI50,[25],89.3 µM (inactive)
same,GI50,[58],> 100 µM (inactive)
same,GI50,[26],75.5 µM (inactive)
same,GI50,[27],> 100 µM (inactive)
same,GI50,[28],> 100 µM (inactive)
same,GI50,[29],94.6 µM (inactive)
same,GI50,[30],45.6 µM (inactive)
same,GI50,[61],> 100 µM (inactive)
same,GI50,[31],> 100 µM (inactive)
same,GI50,[32],> 100 µM (inactive)
same,GI50,[34],> 100 µM (inactive)
same,GI50,[35],> 100 µM (inactive)
same,GI50,[36],> 100 µM (inactive)
same,GI50,[37],> 100 µM (inactive)
same,GI50,[62],56.8 µM (inactive)
same,GI50,[38],80.2 µM (inactive)
same,GI50,[64],26.6 µM (inactive)
same,GI50,[66],> 100 µM (inactive)
same,GI50,[40],> 100 µM (inactive)
same,GI50,[67],> 100 µM (inactive)
